Results reported in the CheMixHub viscosity set.

Experiment: xn = mol fraction of the nth substance listed

CCC(C)=O + CS(C)=O
viscosity [mPa·s], 101.3 kPa
Conditions | 298.15 K | 308.15 K | 318.15 K
x1 = 0.054 | 1.762 | 1.448 | 1.23
x1 = 0.107 | 1.615 | 1.335 | 1.142
x1 = 0.213 | 1.372 | 1.138 | 0.982
x1 = 0.317 | 1.162 | 0.979 | 0.852
x1 = 0.419 | 0.988 | 0.83 | 0.734
x1 = 0.52 | 0.835 | 0.712 | 0.639
x1 = 0.619 | 0.717 | 0.621 | 0.561
x1 = 0.716 | 0.627 | 0.547 | 0.496
x1 = 0.812 | 0.54 | 0.473 | 0.436
x1 = 0.907 | 0.462 | 0.407 | 0.383
x1 = 0.954 | 0.438 | 0.379 | 0.361

OCCNCCO + C[N+](C)(C)CCO.[Cl-]
viscosity [mPa·s], 101 kPa
Conditions | x2 = 0.091 | x2 = 0.111 | x2 = 0.143
293.15 K | 611.4 | 565.3 | 567
313.15 K | 151.4 | 150.4 | 149.2

CCC(C)=O + Cc1ccc(C)cc1
307.35 K, 101.33 kPa
Conditions | viscosity [mPa·s]
x1 = 0.1273 | 0.515
x1 = 0.311 | 0.48
x1 = 0.3949 | 0.457
x1 = 0.5326 | 0.434
x1 = 0.5913 | 0.419
x1 = 0.6949 | 0.401
x1 = 0.7871 | 0.388

COC(C)=O + Cc1ccc(C)cc1
viscosity [mPa·s], 101 kPa
Conditions | 298.15 K | 308.15 K
x1 = 0.0478 | 0.592 | 0.521
x1 = 0.1516 | 0.548 | 0.49
x1 = 0.2496 | 0.514 | 0.465
x1 = 0.3526 | 0.483 | 0.442
x1 = 0.4453 | 0.46 | 0.423
x1 = 0.492 | 0.449 | 0.415
x1 = 0.5525 | 0.437 | 0.404
x1 = 0.6515 | 0.42 | 0.389
x1 = 0.7506 | 0.406 | 0.376
x1 = 0.8511 | 0.395 | 0.365
x1 = 0.9428 | 0.388 | 0.356
